Measured values from patent US20090062253A1, “HETEROCYCLODIAZEPINE CANNABINOID RECEPTOR MODULATORS FOR TREATMENT OF DISEASE” (KALYPSYS, INC., priority 2007, published 2009).

How the values were obtained:
[1] = target: T1, human cannabinoid receptor type 1 (Homo sapiens, UniProt P21554); assay: Human CB1 Radioligand Binding Assay (basis of selectivity CB2 vs. CB1)
T1 construct: purchased Perkin Elmer RBHCB1M; host or cells: HEK 293 EBNA cells
How it was run: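 Filtration competition binding against [3H] CP-55,940 at its Kd, using membranes from HEK 293 EBNA cells expressing human CB1; 90 minutes at 30° C in 50 mM Tris-HCl pH 7.4, 2.5 mM EDTA, 5 mM MgCl2, 5.0 mg/ml BSA, 1% DMSO. Single point 10 uM or dose-response; 100 nM CP-55,940 defined 100% efficacy.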

[2] = target: T2, Human CB2 (Homo sapiens, UniProt P34972); assay: Human CB2 Radioligand Binding Assay; conditions: membranes from stably transfected CHO CB2 cells; competition with [3H] CP-55,940; read-out: CB2 Ligand Binding Asssay
T2 construct: expressed in transfected cells; membrane preparation
T2 sequence (P34972 whole entry): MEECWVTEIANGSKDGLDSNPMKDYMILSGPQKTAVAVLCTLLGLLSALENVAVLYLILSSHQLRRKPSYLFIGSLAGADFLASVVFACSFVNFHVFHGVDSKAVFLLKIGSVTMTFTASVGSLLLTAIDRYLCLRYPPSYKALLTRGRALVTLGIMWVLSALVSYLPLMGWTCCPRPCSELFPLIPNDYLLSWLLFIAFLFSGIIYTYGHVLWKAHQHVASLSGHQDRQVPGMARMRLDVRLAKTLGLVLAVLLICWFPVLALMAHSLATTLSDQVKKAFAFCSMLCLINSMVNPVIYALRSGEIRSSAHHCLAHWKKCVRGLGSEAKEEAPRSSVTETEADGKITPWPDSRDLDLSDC
How it was run: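 Filtration competition against [3H]CP-55,940 at its Kd on membranes from CHO cells stably expressing human CB2; compounds at 10 uM single point or dose-response, 1% DMSO. Buffer 50 mM Tris-HCl pH 7.4, EGTA, MgCl2, 5.0 mg/ml BSA; 90 min at 30° C, scintillation read; 100 nM CP-55,940 = 100%.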

T1 sequence (P21554 whole entry): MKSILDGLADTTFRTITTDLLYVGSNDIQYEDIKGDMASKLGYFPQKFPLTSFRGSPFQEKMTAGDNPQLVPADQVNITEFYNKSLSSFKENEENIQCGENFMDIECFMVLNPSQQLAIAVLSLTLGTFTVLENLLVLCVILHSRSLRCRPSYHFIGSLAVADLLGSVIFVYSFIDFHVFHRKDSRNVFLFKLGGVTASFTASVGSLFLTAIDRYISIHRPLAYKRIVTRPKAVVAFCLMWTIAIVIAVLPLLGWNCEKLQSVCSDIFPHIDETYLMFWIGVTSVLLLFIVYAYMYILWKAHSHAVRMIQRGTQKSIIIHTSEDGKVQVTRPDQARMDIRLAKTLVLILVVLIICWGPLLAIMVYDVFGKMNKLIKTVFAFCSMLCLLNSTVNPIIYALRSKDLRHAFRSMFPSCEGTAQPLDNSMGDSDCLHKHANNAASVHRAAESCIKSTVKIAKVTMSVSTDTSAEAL

Compound	Selectivity, CB2 vs. CB1 [1]	IC50 (radioligand displacement) [2] [nM]
O=C(Nc1ccc(F)cc1F)N1CCCn2cccc2C1Cc1ccccc1 (stereo not shown) [Example 41, 1-Benzyl-N-(2,4-difluorophenyl)-4,5-dihydro-1H-pyrrolo[1,2-a][1,4]diazepine-2(3H)-carboxamide]	− (− indicates < 10-fold)	> 1000
(8,9-cis)-9-Phenyl-N-(4-(trifluoromethyl)phenyl)-6,7,8,9-tetrahydro-5H-pyrrolo[1,2-a]azepine-8-carboxamide [Example 112]	− (− indicates < 10-fold)	> 1000
Cc1ccc(C2c3cccn3CCCN2C(=O)Nc2ccc(F)cc2F)cc1 (stereo not shown) [Example 8, N-(2,4-Difluorophenyl)-1-p-tolyl-4,5-dihydro-1H-pyrrolo[1,2-a][1,4]diazepine-2(3H)-carboxamide]	− (− indicates < 10-fold)	< 1000
CC(C)(C)c1ccc(C2=C(C(=O)Nc3ccc(Cl)cc3)CCn3cccc32)cc1 [Example 60, 8-(4-tert-Butylphenyl)-N-(4-chlorophenyl)-5,6-dihydroindolizine-7-carboxamide]	− (− indicates < 10-fold)	< 1000
CC(C)(C)C1CCC(C2NCCCn3cccc32)CC1 (stereo not shown) [Example 32, 1-(4-tert-Butylcyclohexyl)-2,3,4,5-tetrahydro-1H-pyrrolo[1,2-a][1,4]diazepine]	+ (+ indicates > 10-fold)	> 1000
CC(C)(C)c1ccc(C2=C(C(=O)Nc3ccc(F)c(F)c3)CCn3cccc32)cc1 [Example 59, 8-(4-tert-Butylphenyl)-N-(3,4-difluorophenyl)-5,6-dihydroindolizine-7-carboxamide]	+ (+ indicates > 10-fold)	< 1000
CC(C)(C)c1ccc(C2c3ccnn3CCCN2C(=O)Nc2ccc(F)cc2F)cc1 (stereo not shown) [Example 36, 4-(4-tert-Butylphenyl)-N-(2,4-difluorophenyl)-7,8-dihydro-4H-pyrazolo[1,5-a][1,4]diazepine-5(6H)-carboxamide]	+ (+ indicates > 10-fold)	< 1000
CC(C)(C)c1ccc(C2NCCn3cccc32)cc1 (stereo not shown) [Example 1, 1-(4-tert-Butylphenyl)-1,2,3,4-tetrahydropyrrolo[1,2-a]pyrazine]	− (− indicates < 10-fold)	> 1000
CC(C)(C)c1ccc(C2c3cccn3CCCN2C(=O)c2ccc(Cl)cc2Cl)cc1 (stereo not shown) [Example 49, (1-(4-tert-Butylphenyl)-4,5-dihydro-1H-pyrrolo[1,2-a][1,4]diazepin-2(3H)-yl)(2,4-dichlorophenyl)methanone]	− (− indicates < 10-fold)	< 1000
CC(C)(C)c1ccc(C2=C(C(=O)Nc3ccc(Cl)cc3Cl)CCn3cccc32)cc1 [Example 57, 8-(4-tert-Butylphenyl)-N-(2,4-dichlorophenyl)-5,6-dihydroindolizine-7-carboxamide]	− (− indicates < 10-fold)	> 1000
CC(C)(C)c1cccc(C2c3cccn3CCCN2C(=O)Nc2ccc(F)cc2F)c1 (stereo not shown) [Example 18, 1-(3-tert-Butylphenyl)-N-(2,4-difluorophenyl)-4,5-dihydro-1H-pyrrolo[1,2-a][1,4]diazepine-2(3H)-carboxamide]	+ (+ indicates > 10-fold)	< 1000

Next, values leading:

Selectivity, CB2 vs. CB1 [1]	IC50 (radioligand displacement) [2] [nM]	Compound
− (− indicates < 10-fold)	> 1000	O=C(Nc1ccc(F)c(F)c1)C1CCCn2cccc2C1c1ccccc1 (single isomer, unassigned) [Example 108, (8,9-cis)-N-(3,4-Difluorophenyl)-9-phenyl-6,7,8,9-tetrahydro-5H-pyrrolo[1,2-a]azepine-8-carboxamide]
+ (+ indicates > 10-fold)	< 1000	CC(C)(C)c1ccc(C2=C(NC(=O)Nc3ccc(Cl)cc3)CCCn3cccc32)cc1 [Example 83, (E)-1-(9-(4-tert-Butylphenyl)-6,7-dihydro-5H-pyrrolo[1,2-a]azepin-8-yl)-3-(4-chlorophenyl)urea]
+ (+ indicates > 10-fold)	< 1000	CC(C)(C)c1ccc(C2c3cccnc3CCCN2C(=O)Nc2ccc(F)c(F)c2)cc1 (stereo not shown) [Example 135, 5-(4-tert-Butylphenyl)-N-(3,4-difluorophenyl)-8,9-dihydro-5H-pyrido[3,2-c]azepine-6(7H)-carboxamide]
− (− indicates < 10-fold)	> 1000	CC(C)(C)c1ccc(C2c3cccnc3OCCN2C(=O)Nc2ccc(Cl)cc2Cl)cc1 (stereo not shown) [Example 140, 5-(4-tert-Butylphenyl)-N-(2,4-dichlorophenyl)-2,3-dihydropyrido[3,2-f][1,4]oxazepine-4(5H)-carboxamide]
− (− indicates < 10-fold)	> 1000	CC(C)(C)c1ccc(CC2=C(C(=O)Nc3ccc(Cl)cc3)CCCn3cncc32)cc1 [Example 82, (E)-9-(4-tert-Butylbenzyl)-N-(4-chlorophenyl)-6,7-dihydro-5H-imidazo[1,5-a]azepine-8-carboxamide]
− (− indicates < 10-fold)	> 1000	O=C(Nc1ccc(F)cc1F)C1=C(c2ccccc2)c2cccn2CCC1 [Example 73, (E)-N-(2,4-Difluorophenyl)-9-phenyl-6,7-dihydro-5H-pyrrolo[1,2-a]azepine-8-carboxamide]
− (− indicates < 10-fold)	> 1000	O=C(Nc1ccc(F)cc1F)[C@H]1CCCn2cccc2[C@@H]1c1ccccc1 (relative stereo) [Example 105, (8,9-trans)-N-(2,4-Difluorophenyl)-9-phenyl-6,7,8,9-tetrahydro-5H-pyrrolo[1,2-a]azepine-8-carboxamide]
− (− indicates < 10-fold)	> 1000	O=C(Nc1ccc(C(F)(F)F)cc1)C1=C(c2ccccc2)c2cccn2CCC1 [Example 74, (E)-9-Phenyl-N-(4-(trifluoromethyl)phenyl)-6,7-dihydro-5H-pyrrolo[1,2-a]azepine-8-carboxamide]
− (− indicates < 10-fold)	> 1000	O=C(Nc1ccc(C(F)(F)F)cc1)C1CCn2cccc2C1c1ccccc1 (mixture of isomers) [Example 103, 8-Phenyl-N-(4-(trifluoromethyl)phenyl)-5,6,7,8-tetrahydroindolizine-7-carboxamide]
